Measured values reported in US4225611A, “Novel n-substituted benzenesulfonamide, process for its preparation and medicaments containing it” (Choay S.A., priority 1977, dated 1980).

Experiments:
[1] = acute toxicity in the rat, by the oral route; conditions: in vivo, single dose
From the text: The acute toxicity is expressed by the lethal dose 50, that is to say the dose resulting in the death of 50% of the animals.
This study has been carried out on groups of 10 Swiss male mice whose weight varied from 24 to 26 g, and on groups of six Wistar male rats of 120 to 125 g.
The administration was made in a single dose by the oral route in the rats and the mice, and also by the intravenous route in the case of the mice.

[2] = system: acetyl salicylic acid ulcer; assay: anti-ulcer activity: acetyl salicylic acid ulcer; assay type: in vivo, rat; conditions: 50 mg/kg oral, 1 hour before 50 mg/kg AAS oral; sacrifice 24 hours later; versus controls
Description: (§1) The compound according to the invention was studied for its preventive properties with respect to ulcers generated by various means. Thus the ratio in the reduction of gastric attacks caused by acetyl salicylic acid and phenylbutazone was determined, as well as the ratio in the reduction of stress ulcers and SHAY ulcers, or again vasomotor reactions to polymyxine B.
(§2) For these tests, male Wistar rats were used (from 250 to 350 g according to the test). For each test and each dose, 10 animals at least were treated.
(§3) In the case of acetyl salicylic acid (AAS) and of phenylbutazone, the test procedure was as follows:
(§4) administration by the oral route of 50 mg/kg of the compound in aqueous solution with 3% of gum arabic after 23 hours fasting;
(§5) initiation of ulcerogenesis 1 hour later, by the administration of 50 mg/kg of AAS by the oral route or of 100 mg/kg of phenylbutazone by the intraperitoneal route;
(§6) sacrifice of the animals 24 hours later and examination of the gastric mucous membrane.
(§7) The control animals only received AAS or phenylbutazone.
(§8) In all the preceding tests, the results were obtained by examination of the gastric mucous membrane to determine the presence either of a congested area, or of more or less serious ulcerations.
(§9) Study of the levels of reduction of attacks in the treated animals, with respect to the controls, was effected by the method of O. FOUSSARD and G. […]

phenylbutazone ulcer = assay: anti-ulcer activity: phenylbutazone ulcer; assay type: in vivo, rat; conditions: 50 mg/kg oral, 1 hour before 100 mg/kg phenylbutazone intraperitoneal; sacrifice 24 hours later; versus controls
Description: as §1, §2, §3, §4, §5, §6, §7, §8, §9

stress ulcer = assay: anti-ulcer activity: stress ulcer (total immobilization); assay type: in vivo, rat; conditions: 50 mg/kg oral, 1 hour before 18 hours immobilization; versus controls
Description: as §1, §2
For the stress ulcer, the rats, 1 hour after having received 50 mg/kg of the product according to the invention by the oral route, were totally immobilized for 18 hours in a cylindrical wire cage, according to the technique of ROSSI (C.R. Soc. Biol., 1956, 150, 2124-2126) and BONFILS (C.R. Soc. Biol., 1957, 151, 1149-1150). They were then sacrificed and examined.
as §8
(§10) Study of the levels of reduction of attacks in the treated animals, with respect to the controls, was effected by the method of O. FOUSSARD and G. […] (Therapie, 1972, 27, 705-721) applying the formula of J. M. LWOFF (J. Pharmacol., 1971, 2, 1, 81-83).

SHAY ulcer = assay: anti-ulcer activity: SHAY ulcer (ligature of the pylorus); assay type: in vivo, rat; conditions: 100 mg/kg oral, 1 hour before ligature of the pylorus, versus controls
Description: as §1, §2
The SHAY ulcer was produced in the fasting rat after 48 hours. 47 hours after the beginning of the fast, by the oral route, 100 mg/kg of the product to be tested was administered, then, 1 hour later, ligature of the pylorus was effected after light anesthesia with ether. The sacrifice of the animals took place 12 to 24 hours after the ligature.
as §8, §10

[3] = system: vasomotor lesions and hemorhagia of the glandular portion of the stomach; assay: anti-ulcerogenic action against polymyxine B vasomotor lesions; assay type: in vivo, rat; conditions: 100 mg/kg oral before 1.5 mg/kg polymyxine B intraperitoneal; sacrifice two hours later; 15 rats versus 15 controls
Description: as §1, §2
In the tests with polymyxine B, 100 mg/kg of the compound according to the invention was administered by the oral route before the intraperitoneal injection of 1.5 mg/kg of polymyxine B, then, two hours later after this last injection, the rats were sacrificed. The injection of polymyxine B has the effect of causing vasomotor lesions and hemorhagia of the glandular portion of the stomach. It is by measurement of the extent of these lesions that the anti-ulcerogenic action of the compound was determined (A. BELL and Coll., Biologie et gastro-enterologie, 1969, 2, 117-126-Suppt. No. 2 aux Archives francaises des maladies de l'appareil digestif, 1969, 58, 10-11, October-November).

CCN1CCCC1CNS(=O)(=O)c1cc(Cl)c(N)cc1OC (stereo not shown) [(I), chloro-5 methoxy-2 amino-4 N-(N-ethyl methyl-2 pyrrolidino) benzenesulfonamide]
LD50 [1]: 1500 mg/kg | level of reduction of attacks, acetyl salicylic acid ulcer [2]: 40.0% | level of reduction of attacks, phenylbutazone ulcer (phenylbutazone ulcer): 46.9% | level of reduction of attacks, stress ulcer (stress ulcer): 50.8% | level of reduction of attacks, SHAY ulcer, after 12 hours of ligature (SHAY ulcer; 12 hours of ligature): 60.4% | level of reduction of attacks, SHAY ulcer, after 24 hours of ligature (SHAY ulcer; 24 hours of ligature): 46.1% | reduction in the lesions (polymyxine B) [3]: ~63%
